Assay results reported in ChEMBL document CHEMBL4339203, “Structural requirements of cholenamide derivatives as the LXR ligands” (Bioorg Med Chem Lett, 2019).
Active and inactive are the calls of the source. No cut-off for these calls is given here.

Columns and labels:
[1] = biological target: T1, Oxysterols receptor LXR-beta (Rattus norvegicus) (UniProt Q62755); experiment: Transactivation of rat LXRbeta expressed in HEK293FT cells measured after 14 to 18 hrs by dual-luciferase reporter gene assay relative to T0901317; assay type: cell-based
T1 sequence (whole entry): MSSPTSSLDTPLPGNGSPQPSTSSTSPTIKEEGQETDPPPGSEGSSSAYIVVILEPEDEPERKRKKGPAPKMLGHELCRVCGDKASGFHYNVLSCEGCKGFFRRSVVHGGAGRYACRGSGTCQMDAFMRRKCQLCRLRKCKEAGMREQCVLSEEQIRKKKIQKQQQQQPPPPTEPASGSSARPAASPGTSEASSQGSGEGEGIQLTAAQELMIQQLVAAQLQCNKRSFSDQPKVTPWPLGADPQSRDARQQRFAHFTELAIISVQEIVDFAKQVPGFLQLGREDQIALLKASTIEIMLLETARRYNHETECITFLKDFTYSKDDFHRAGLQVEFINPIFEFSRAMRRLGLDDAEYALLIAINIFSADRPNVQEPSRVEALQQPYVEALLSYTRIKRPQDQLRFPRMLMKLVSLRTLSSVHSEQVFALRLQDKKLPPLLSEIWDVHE

[2] = biological target: T1, Oxysterols receptor LXR-beta (Rattus norvegicus); experiment: Transactivation of rat LXRbeta expressed in HEK293FT cells co-expressing RXR at 5 uM measured after 14 to 18 hrs by dual-luciferase reporter gene assay; assay type: cell-based
[3] = biological target: T2, Oxysterols receptor LXR-beta (Rattus norvegicus, UniProt Q62755); experiment: Transactivation of rat LXRbeta expressed in HEK293FT cells measured after 14 to 18 hrs by dual-luciferase reporter gene assay; assay type: cell-based
T2 sequence (Q62755 whole entry): T1 sequence (whole entry)

[4] = biological target: T3, Oxysterols receptor LXR-alpha (Rattus norvegicus, UniProt Q62685); experiment: Transactivation of rat LXRalpha expressed in HEK293FT cells co-expressing RXR at 5 uM measured after 14 to 18 hrs by dual-luciferase reporter gene assay; assay type: cell-based
T3 sequence (Q62685 whole entry): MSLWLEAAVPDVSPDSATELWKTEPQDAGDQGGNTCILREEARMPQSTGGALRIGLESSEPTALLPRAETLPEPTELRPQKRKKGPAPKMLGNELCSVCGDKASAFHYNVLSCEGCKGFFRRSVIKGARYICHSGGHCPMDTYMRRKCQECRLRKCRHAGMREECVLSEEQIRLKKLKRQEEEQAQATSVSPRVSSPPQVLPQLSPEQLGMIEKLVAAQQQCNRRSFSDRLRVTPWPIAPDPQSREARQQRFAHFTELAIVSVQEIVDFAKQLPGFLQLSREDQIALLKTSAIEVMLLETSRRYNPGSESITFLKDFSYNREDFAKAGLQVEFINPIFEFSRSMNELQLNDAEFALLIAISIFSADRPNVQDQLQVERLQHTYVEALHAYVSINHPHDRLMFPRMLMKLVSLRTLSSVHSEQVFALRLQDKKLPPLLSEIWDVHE

[5] = Ratio of compound effect for transactivation of rat LXRalpha expressed in HEK293FT cells to compound effect for transactivation of rat LXRbeta expressed in HEK293FT cells
[6] = biological target: T1, Oxysterols receptor LXR-beta (Rattus norvegicus); experiment: Transactivation of rat LXRbeta expressed in HEK293FT cells at 5 uM measured after 14 to 18 hrs by dual-luciferase reporter gene assay; assay type: cell-based

| SMILES | Efficacy [1] [%] | EC50 ([3]; read-out: EC50) [nM] | Activity [6] | also measured |
| --- | --- | --- | --- | --- |
| CC(C)N(C(=O)CC[C@@H](C)[C@H]1CC[C@H]2[C@@H]3CC=C4C[C@@H](O)CC[C@]4(C)[C@H]3CC[C@]12C)C(C)C | 148 | 1110 | Active | Activity [2]: Active; Activity [4]: Active; Ratio [5]: 2 |
| C[C@H](C[C@@H]1CCN(C)C1=O)[C@H]1CC[C@H]2[C@@H]3CC=C4C[C@@H](O)CC[C@]4(C)[C@H]3CC[C@]12C |  |  |  | EC50 [3]: Not Active |
| CC(C)NC(=O)CC[C@@H](C)[C@H]1CC[C@H]2[C@@H]3CC=C4C[C@@H](O)CC[C@]4(C)[C@H]3CC[C@]12C | 85 | 862 | Active |  |
| CCN(C)C(=O)C(C)C[C@@H](C)[C@H]1CC[C@H]2[C@@H]3CC=C4C[C@@H](O)CC[C@]4(C)[C@H]3CC[C@]12C (stereo in doubt; 10) [listing 1 of 2 here] |  | 3900 |  |  |
| C[C@H](C[C@H]1CCCN(C)C1=O)[C@H]1CC[C@H]2[C@@H]3CC=C4C[C@@H](O)CC[C@]4(C)[C@H]3CC[C@]12C |  | 239 |  |  |
| O=S(=O)(c1ccccc1)N(CC(F)(F)F)c1ccc(C(O)(C(F)(F)F)C(F)(F)F)cc1 | 98 |  |  |  |
| C[C@H](C[C@@H]1CCCCN(C)C1=O)[C@H]1CC[C@H]2[C@@H]3CC=C4C[C@@H](O)CC[C@]4(C)[C@H]3CC[C@]12C | 80 | 462 |  |  |
| C[C@H](CCC(=O)N1CCCC1)[C@H]1CC[C@H]2[C@@H]3CC=C4C[C@@H](O)CC[C@]4(C)[C@H]3CC[C@]12C | 99 | 165 | Active |  |
| C[C@H](C[C@@H]1CCCN(C)C1=O)[C@H]1CC[C@H]2[C@@H]3CC=C4C[C@@H](O)CC[C@]4(C)[C@H]3CC[C@]12C |  |  |  | EC50 [3]: Not Active |
| CCN(C)C(=O)C(C)C[C@@H](C)[C@H]1CC[C@H]2[C@@H]3CC=C4C[C@@H](O)CC[C@]4(C)[C@H]3CC[C@]12C (stereo in doubt; 10) [listing 2 of 2 here] | 39 |  |  |  |
| CCN(CC)C(=O)CC[C@@H](C)[C@H]1CC[C@H]2[C@@H]3CC=C4C[C@@H](O)CC[C@]4(C)[C@H]3CC[C@]12C | 211 | 344 | Active | Activity [2]: Active; Activity [4]: Active |
| CCCN(C)C(=O)CC[C@@H](C)[C@H]1CC[C@H]2[C@@H]3CC=C4C[C@@H](O)CC[C@]4(C)[C@H]3CC[C@]12C | 102 | 1020 |  | Activity [2]: Active; Activity [4]: Active |
| C[C@H](CCC(=O)N(C)C)[C@H]1CC[C@H]2[C@@H]3CC=C4C[C@@H](O)CC[C@]4(C)[C@H]3CC[C@]12C | 100 | 124 to 464 | Active |  |
| CCN(C)C(=O)C(C)C[C@@H](C)[C@H]1CC[C@H]2[C@@H]3CC=C4C[C@@H](O)CC[C@]4(C)[C@H]3CC[C@]12C (stereo in doubt; 11) [listing 1 of 2 here] | 65 |  |  |  |
| C[C@H](CCC(=O)N1CCCCC1)[C@H]1CC[C@H]2[C@@H]3CC=C4C[C@@H](O)CC[C@]4(C)[C@H]3CC[C@]12C | 134 | 127 | Active |  |
| CCN(C)C(=O)C(C)C[C@@H](C)[C@H]1CC[C@H]2[C@@H]3CC=C4C[C@@H](O)CC[C@]4(C)[C@H]3CC[C@]12C (stereo in doubt; 11) [listing 2 of 2 here] |  | 1990 |  |  |
| CCN(C)C(=O)CC[C@@H](C)[C@H]1CC[C@H]2[C@@H]3CC=C4C[C@@H](O)CC[C@]4(C)[C@H]3CC[C@]12C | 108 | 786 |  | Activity [2]: Active; Activity [4]: Active |
| CC(C)N(C)C(=O)CC[C@@H](C)[C@H]1CC[C@H]2[C@@H]3CC=C4C[C@@H](O)CC[C@]4(C)[C@H]3CC[C@]12C | 109 | 623 |  | Activity [2]: Active; Activity [4]: Active |
| C[C@H](C[C@H]1CCN(C)C1=O)[C@H]1CC[C@H]2[C@@H]3CC=C4C[C@@H](O)CC[C@]4(C)[C@H]3CC[C@]12C |  | 1290 |  |  |
| CCN1CCC[C@@H](C[C@@H](C)[C@H]2CC[C@H]3[C@@H]4CC=C5C[C@@H](O)CC[C@]5(C)[C@H]4CC[C@]23C)C1=O | 62 | 643 |  |  |
